Test results published in ChEMBL document CHEMBL1201862, “PubChem BioAssay data set” (2004).
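1) Cells in 96-well plates. 2) Compound, 48 h, 5 concentrations. 3) Linear interpolation between surrounding doses. 4) Unreached endpoint = highest concentration. Abbreviation: GI50, concentration required for 50% inhibition of growth.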 Calls of active or inactive are those of the source. Cut-off read from the data, not from the text of the source: active = GI50 up to about 1.1 µM and inactive = higher.

Key:
Assay in all cases: NCI tumour cell line growth inhibition, 48 h
UACC-62 = test system: UACC-62
KM12 = test system: KM12
M14 = test system: M14
K562 = test system: K562
OVCAR-8 = test system: OVCAR-8
HCC 2998 = test system: HCC 2998
786-0 = test system: 786-0
ACHN = test system: ACHN
OVCAR-4 = test system: OVCAR-4
SK-OV-3 = test system: SK-OV-3
SF-539 = test system: SF-539
UO-31 = test system: UO-31
NCI-H23 = test system: NCI-H23
EKVX = test system: EKVX
HL-60 = test system: HL-60
OVCAR-5 = test system: OVCAR-5
SR = test system: SR
A498 = test system: A498
MOLT-4 = test system: MOLT-4

Measured: GI50

O=[N+]([O-])c1ccc2c(c1)OCCOCCOc1ccc([N+](=O)[O-])cc1OCCOCCO2
inactive: UACC-62 > 100 µM | KM12 > 100 µM | M14 > 100 µM | K562 > 100 µM | OVCAR-8 > 100 µM | HCC 2998 > 100 µM | 786-0 > 100 µM | ACHN > 100 µM | OVCAR-4 > 100 µM | SK-OV-3 > 100 µM | SF-539 > 100 µM | UO-31 > 100 µM | NCI-H23 > 100 µM | EKVX > 100 µM | HL-60 > 100 µM | OVCAR-5 > 100 µM | SR > 100 µM | A498 > 100 µM | MOLT-4 > 100 µM

COc1ccc2c3c(n(Cc4ccccc4)c(=O)c2c1)-c1cc(OC)c(OC)cc1C3C (configuration not stated)
inactive: UACC-62 18.7 µM | KM12 23.3 µM | M14 44 µM | K562 9.89 µM | OVCAR-8 19.8 µM | HCC 2998 36.6 µM | 786-0 7.45 µM | ACHN 11.5 µM | OVCAR-4 6.61 µM | SK-OV-3 18.8 µM | SF-539 7.52 µM | UO-31 22.2 µM | NCI-H23 6.92 µM | EKVX 10.6 µM | HL-60 > 46.8 µM | OVCAR-5 > 28.4 µM | SR 5.12 µM | A498 30.5 µM | MOLT-4 8.32 µM

Clc1ccc(C2=NOC3C4CCC(C4)C23)cc1 (configuration not stated)
inactive: UACC-62 > 100 µM | KM12 > 100 µM | M14 > 100 µM | K562 > 100 µM | OVCAR-8 > 100 µM | HCC 2998 > 100 µM | 786-0 > 100 µM | ACHN > 100 µM | OVCAR-4 > 100 µM | SK-OV-3 > 100 µM | SF-539 > 100 µM | UO-31 > 100 µM | NCI-H23 > 100 µM | EKVX > 100 µM | HL-60 56 µM | OVCAR-5 > 100 µM | SR 61.2 µM | A498 > 100 µM | MOLT-4 59.4 µM

O=C1C2=C(CCCC2)Nc2cccc3ncn1c23
inactive: UACC-62 > 100 µM | KM12 > 100 µM | M14 > 100 µM | K562 > 100 µM | OVCAR-8 > 100 µM | HCC 2998 > 100 µM | 786-0 > 100 µM | ACHN > 100 µM | SK-OV-3 > 100 µM | SF-539 > 100 µM | UO-31 > 100 µM | NCI-H23 > 100 µM | EKVX > 100 µM | HL-60 > 100 µM | OVCAR-5 > 100 µM | SR > 100 µM | A498 > 100 µM | MOLT-4 > 100 µM

O=C1NC(=S)N/C1=C/c1c(-c2ccccc2)[nH]c2ccccc12
inactive: UACC-62 11.7 µM | KM12 14.6 µM | K562 10.1 µM | OVCAR-8 14.4 µM | HCC 2998 21.1 µM | 786-0 14 µM | ACHN 17.4 µM | OVCAR-4 16.1 µM | SF-539 17.4 µM | UO-31 9.23 µM | NCI-H23 14.1 µM | EKVX 14.5 µM | HL-60 7.31 µM | OVCAR-5 17.9 µM | SR 6.32 µM | A498 11.4 µM | MOLT-4 12.4 µM

Cc1c(C(Cc2ccccc2N(C)C(=O)/C=C\C(=O)O)c2c[nH]c3ccccc23)c2ccccc2n1C (configuration not stated)
inactive: UACC-62 17.2 µM | KM12 15.6 µM | M14 15.4 µM | K562 18.7 µM | OVCAR-8 13.2 µM | HCC 2998 16.3 µM | 786-0 16.4 µM | ACHN 17.1 µM | OVCAR-4 22.5 µM | SK-OV-3 21.7 µM | SF-539 16.6 µM | UO-31 14.5 µM | NCI-H23 16.8 µM | EKVX 16.3 µM | HL-60 4.66 µM | OVCAR-5 21.2 µM | SR 16.9 µM | A498 17.9 µM | MOLT-4 22.9 µM

CN(c1ccccc1)c1cc2ccccc2nn1
inactive: UACC-62 > 100 µM | KM12 > 100 µM | M14 > 100 µM | K562 89.7 µM | OVCAR-8 > 100 µM | 786-0 > 100 µM | ACHN 74 µM | OVCAR-4 > 100 µM | SK-OV-3 > 100 µM | SF-539 > 100 µM | UO-31 29.3 µM | NCI-H23 > 100 µM | EKVX 65.8 µM | HL-60 30.5 µM | OVCAR-5 > 100 µM | SR > 100 µM | A498 > 100 µM | MOLT-4 52.7 µM

CCOC(=O)NC(=O)c1cn(CC(=O)NCC(=O)NCC(=O)N2CCN(CCn3c(C)nc(C(N)=O)c3N)CC2)c(=O)[nH]c1=O
inactive: UACC-62 > 100 µM | KM12 > 100 µM | M14 > 100 µM | K562 > 100 µM | OVCAR-8 > 100 µM | HCC 2998 > 100 µM | 786-0 > 100 µM | ACHN > 100 µM | SK-OV-3 > 100 µM | SF-539 > 100 µM | UO-31 > 100 µM | NCI-H23 > 100 µM | HL-60 > 100 µM | SR > 100 µM | A498 > 100 µM | MOLT-4 > 100 µM

O=C(Nc1ccccc1Br)c1cccc([N+](=O)[O-])c1O
inactive: UACC-62 1.91 µM | KM12 4.26 µM | M14 4.32 µM | K562 3.13 µM | OVCAR-8 4.16 µM | HCC 2998 2.49 µM | 786-0 3.99 µM | ACHN 3.67 µM | OVCAR-4 3.01 µM | SK-OV-3 3.95 µM | SF-539 5.61 µM | UO-31 1.89 µM | NCI-H23 2.5 µM | EKVX 3.04 µM | HL-60 2.9 µM | OVCAR-5 5.13 µM | SR 4.51 µM | A498 2.49 µM | MOLT-4 2.26 µM

NC(=O)N1N=C2c3ccccc3SC[C@H]2[C@@H]1c1ccccc1
inactive: KM12 > 10 µM | K562 24.2 µM | OVCAR-8 24 µM | HCC 2998 26.9 µM | 786-0 29 µM | ACHN 33.3 µM | OVCAR-4 26.9 µM | UO-31 23.9 µM | NCI-H23 35.6 µM | EKVX 35 µM | HL-60 21.3 µM | OVCAR-5 21.3 µM | SR 30 µM | A498 35.1 µM | MOLT-4 23.7 µM

CCc1ccccc1NC(=O)C(=O)CC(=O)c1sc(Nc2ccccc2)nc1C
inactive: UACC-62 99.5 µM | KM12 > 100 µM | M14 > 100 µM | K562 97.1 µM | OVCAR-8 > 100 µM | HCC 2998 > 100 µM | 786-0 > 100 µM | ACHN > 100 µM | OVCAR-4 > 100 µM | SK-OV-3 > 100 µM | SF-539 > 100 µM | UO-31 > 100 µM | NCI-H23 > 100 µM | EKVX 29.4 µM | HL-60 89.1 µM | OVCAR-5 > 100 µM | SR 99.3 µM | A498 > 100 µM | MOLT-4 48.6 µM

Cc1c(Cl)ccc2c1NC(=O)C2(O)C1Cc2ccccc2C1=O (configuration not stated)
inactive: UACC-62 72.6 µM | KM12 > 100 µM | M14 > 100 µM | K562 62.1 µM | OVCAR-8 11.2 µM | HCC 2998 32.7 µM | 786-0 41.3 µM | ACHN > 100 µM | OVCAR-4 86.5 µM | SK-OV-3 > 100 µM | SF-539 > 100 µM | UO-31 92.9 µM | NCI-H23 > 100 µM | EKVX > 100 µM | HL-60 21.2 µM | OVCAR-5 > 100 µM | SR 27.9 µM | A498 > 100 µM | MOLT-4 25.2 µM

Cc1ccccc1NC(=O)CC(=O)n1nc(-c2ccccc2)c(/N=N/c2ccc([N+](=O)[O-])cc2)c1-c1ccccc1
inactive: UACC-62 13.1 µM | KM12 16.7 µM | M14 16.7 µM | K562 12.3 µM | OVCAR-8 31.4 µM | HCC 2998 17.9 µM | 786-0 22.1 µM | ACHN 11.2 µM | OVCAR-4 23.6 µM | SK-OV-3 16.7 µM | SF-539 19.9 µM | UO-31 7.03 µM | NCI-H23 21.3 µM | EKVX 20.2 µM | HL-60 19.9 µM | OVCAR-5 32 µM | SR 25.1 µM | MOLT-4 16.1 µM

COC(=O)C(=O)C(CC(=O)Nc1ccc(C)cc1)C(=O)OC (configuration not stated)
inactive: UACC-62 > 100 µM | KM12 > 100 µM | M14 > 100 µM | K562 > 100 µM | OVCAR-8 > 100 µM | HCC 2998 > 100 µM | 786-0 > 100 µM | ACHN > 100 µM | OVCAR-4 > 100 µM | SK-OV-3 > 100 µM | SF-539 > 100 µM | UO-31 > 100 µM | NCI-H23 > 100 µM | EKVX > 100 µM | HL-60 > 100 µM | OVCAR-5 > 100 µM | SR > 100 µM | MOLT-4 > 100 µM

COc1ccc2[nH]c3c(O)nncc3c2c1
inactive: UACC-62 53.2 µM | KM12 > 100 µM | M14 > 100 µM | K562 > 100 µM | OVCAR-8 > 100 µM | HCC 2998 > 100 µM | 786-0 90.8 µM | ACHN > 100 µM | OVCAR-4 > 100 µM | SK-OV-3 45.7 µM | SF-539 > 100 µM | UO-31 > 100 µM | NCI-H23 > 100 µM | EKVX 8.45 µM | HL-60 > 100 µM | OVCAR-5 > 100 µM | SR > 100 µM | A498 > 100 µM | MOLT-4 > 100 µM
